Data on 29 compounds can be found in patent publication US11957680B2, “Pyruvate kinase activators for use in treating blood disorders” (Agios Pharmaceuticals, Inc., priority 2017, dated 2024).

For assay [1], the target named is T1, wild type PKR (Homo sapiens, UniProt P30613). The experiment in a line: Cell based ATP assay in purified red blood cells (Cell-Titer-Glo). Also on record: endogenous in cells; host or cells: purified red blood cells from healthy volunteers. The conditions noted are these: overnight at 37° C., ATP levels; for AC50 / Cell based ATP assay AC50: Table 2, RBCs. Summed up:
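RBCs from healthy human donors' K2EDTA blood were leukocyte-depleted by filtration and resuspended in AGAM (PBS, 1% glucose, adenine, mannitol). Cells at 1×10^7 cells/mL were incubated overnight at 37 °C with serially diluted compound at 0.1% DMSO, and ATP was read by Cell-Titer-Glo luminescence.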

The target of assay [2] is T1, wild type PKR. As to the kind of experiment: PKR (wild type) enzyme AC50 assay, LDH/NADH-coupled, absorbance at 340 nm. The conditions noted are these: for EC50: Table 4, AC50, enzyme assay, read-out: PKR WT; for AC50: Table 2, enzyme assay, read-out: PKR WT AC50. It is filed as biochemical. Summed up: (§1)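 Enzyme amount (40-400 ng/well) and substrate levels vary by PKR variant. The coupled read-out uses LDH (0.5 units) consuming NADH, tracked at 340 nm at room temperature after ADP initiation, following a one-hour compound preincubation.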

In another assay the target is PKR K410E (Homo sapiens, UniProt P30613, K410E). The experiment in a line: PKR mutant assay (K410E), AC50, LDH/NADH-coupled, absorbance at 340 nm. It is filed as biochemical. Particulars: for AC50: Table 2, enzyme assay. Summed up: as §1
The next assay addresses PKR R510Q (Homo sapiens, UniProt P30613, R510Q). As to the kind of experiment: PKR mutant assay (R510Q), AC50, LDH/NADH-coupled, absorbance at 340 nm. It is filed as biochemical. The conditions noted are these: for EC50: read-out: PK R510Q; for AC50 / PK R510Q AC50: Table 2, enzyme assay; for AC50: read-out: PK R510Q AC50. Summed up: as §1

T1 sequence (P30613 whole entry): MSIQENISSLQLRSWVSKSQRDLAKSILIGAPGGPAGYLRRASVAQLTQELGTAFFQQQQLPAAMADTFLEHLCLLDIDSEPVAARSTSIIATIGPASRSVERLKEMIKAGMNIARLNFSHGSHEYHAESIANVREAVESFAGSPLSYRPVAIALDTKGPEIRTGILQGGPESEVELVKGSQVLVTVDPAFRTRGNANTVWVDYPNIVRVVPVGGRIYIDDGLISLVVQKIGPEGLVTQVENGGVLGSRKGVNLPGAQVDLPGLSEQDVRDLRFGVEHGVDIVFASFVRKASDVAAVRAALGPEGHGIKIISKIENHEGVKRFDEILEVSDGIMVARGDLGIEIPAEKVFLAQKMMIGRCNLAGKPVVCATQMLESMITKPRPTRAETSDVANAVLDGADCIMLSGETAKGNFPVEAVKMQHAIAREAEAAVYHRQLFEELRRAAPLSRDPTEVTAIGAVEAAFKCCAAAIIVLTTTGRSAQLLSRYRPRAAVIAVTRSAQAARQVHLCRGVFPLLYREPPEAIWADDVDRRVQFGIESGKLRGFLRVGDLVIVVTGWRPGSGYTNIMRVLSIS
Sequence of PKR K410E (P30613 whole entry K410E): as the sequence (P30613 whole entry) above, with K410E counted along it
Sequence of PKR R510Q (P30613 whole entry R510Q): as the sequence (P30613 whole entry) above, with R510Q counted along it

For `Cn1c2nc(Cc3cnc(N)s3)sc2c2cnn(Cc3cccc4[nH]ncc34)c(=O)c21` [Compound 229], the EC50 at wild type PKR [1] (Table 4, AC50, RBCs) is above 1000 nM; at wild type PKR [2], 301 to 800 nM; on PKR K410E (Table 4, AC50, enzyme assay) it was 301 to 800 nM; at PKR R510Q (Table 4, AC50, enzyme assay), 301 to 800 nM.
In the case of `Cn1c2nc(Cc3cn[nH]n3)sc2c2cnn(Cc3cccc(OC(F)(F)F)c3F)c(=O)c21` [Compound 329], the EC50 on wild type PKR [1] (Table 4, AC50, RBCs) is at most 1000 nM; at wild type PKR [2], 301 to 800 nM; at PKR K410E (Table 4, AC50, enzyme assay), 301 to 800 nM; on PKR R510Q (Table 4, AC50, enzyme assay), below 300 nM.
For orientation: AC50 means the concentration at which the activity in the assay is half-maximal. For `Cn1c2nc(Cc3cnoc3)sc2c2cnn(Cc3cccc4[nH]ncc34)c(=O)c21` [Compound 185], the AC50 at wild type PKR [1] was above 1000 nM; on wild type PKR [2], above 800 nM; on PKR K410E it was 301 to 800 nM; on PKR R510Q, 301 to 800 nM.
In the case of `Cn1c2nc(Cc3cc[nH]n3)sc2c2cnn(Cc3cn4cccnc4n3)c(=O)c21` [Compound 213], the EC50 is at most 1000 nM on wild type PKR [1] (Table 4, AC50, RBCs); 301 to 800 nM at wild type PKR [2]; 301 to 800 nM at PKR K410E (Table 4, AC50, enzyme assay); 301 to 800 nM on PKR R510Q (Table 4, AC50, enzyme assay).
`COc1cccc(Cn2ncc3c4sc(Cc5ccc(C#N)cc5)nc4n(C)c3c2=O)c1` [Compound 64]: the AC50 was at most 1000 nM on wild type PKR [1], below 300 nM on wild type PKR [2], below 300 nM at PKR K410E and below 300 nM at PKR R510Q.
Take `Cc1nc2c(s1)c1cnn(Cc3ccc(CO)cc3)c(=O)c1n2C` [Compound 44]: the AC50 was above 1000 nM on wild type PKR [1], above 800 nM on wild type PKR [2], above 800 nM on PKR K410E and above 800 nM on PKR R510Q.
Consider `Cn1c2nc([C@H](O)c3cc[nH]n3)sc2c2cnn(Cc3cccc4[nH]ncc34)c(=O)c21` [Compound 305], for which the EC50 at wild type PKR [1] (Table 4, AC50, RBCs) is at most 1000 nM; on wild type PKR [2], below 300 nM; at PKR K410E (Table 4, AC50, enzyme assay) it was below 300 nM; on PKR R510Q (Table 4, AC50, enzyme assay), below 300 nM.
`Cc1nc2c(s1)c1cnn(Cc3cccc(O)c3)c(=O)c1n2C` [Compound 7]: the AC50 on wild type PKR [1] was at most 1000 nM; on wild type PKR [2] it was below 300 nM; on PKR K410E, below 300 nM; on PKR R510Q, below 300 nM.
In the case of `Cn1c2nc(C(N)=O)sc2c2cnn(Cc3cccc(N)n3)c(=O)c21` [Compound 158], the concentration at half-maximal activity (AC50) on wild type PKR [1] is at most 1000 nM; on wild type PKR [2] it was below 300 nM; on PKR K410E it was below 300 nM; on PKR R510Q, below 300 nM.
`CSc1nc2c(s1)c1cnn(Cc3ccccc3)c(=O)c1n2-c1nccs1` [Compound 409]: the “Cell based ATP assay” value at wild type PKR [1] (Table 4, AC50, RBCs) was “No Fit”. Besides, the EC50 at wild type PKR [2] was above 800 nM. In addition, the “PKR K410E” value at PKR K410E (Table 4, AC50, enzyme assay) is “No Fit”. Moreover, the “PK R510Q” value on PKR R510Q (Table 4, AC50, enzyme assay) is “No Fit”.
As to `COc1cccc(Cn2ncc3c4sc(C(C)=O)nc4n(C)c3c2=O)c1` [Compound 62], the concentration at half-maximal activity (AC50) on wild type PKR [1] is at most 1000 nM; at wild type PKR [2] it was below 300 nM; on PKR K410E, below 300 nM; on PKR R510Q, below 300 nM.
As to `O=c1c2c(cnn1Cc1ccccc1)c1sc(Cc3cc[nH]n3)nc1n2C1CC1` [Compound 408], the EC50 at wild type PKR [1] (Table 4, AC50, RBCs) is above 1000 nM; at wild type PKR [2], above 800 nM; at PKR K410E (Table 4, AC50, enzyme assay), above 800 nM; at PKR R510Q (Table 4, AC50, enzyme assay), 301 to 800 nM.
Consider `CC(=O)c1cccc(Cn2ncc3c4sc(Cc5cc[nH]n5)nc4n(C)c3c2=O)c1` [Compound 190], for which the EC50 on wild type PKR [1] (Table 4, AC50, RBCs) was at most 1000 nM; at wild type PKR [2], below 300 nM; on PKR K410E (Table 4, AC50, enzyme assay) it was below 300 nM; at PKR R510Q (Table 4, AC50, enzyme assay) it was below 300 nM.
Turning to `COc1cccc(Cn2ncc3c4sc(C)nc4n(C)c3c2=O)n1` [Compound 27], the AC50 at wild type PKR [1] is at most 1000 nM; at wild type PKR [2], below 300 nM; at PKR K410E it was 301 to 800 nM; at PKR R510Q it was 301 to 800 nM.
Turning to `Cc1nc2c(s1)c1cnn(CCO)c(=O)c1n2C` [Compound 67], at wild type PKR [1], the “Cell based ATP assay AC50” value is given as “No Fit”. In addition, the half-maximal activity concentration (AC50) on wild type PKR [2] and on PKR K410E was above 800 nM throughout. At PKR R510Q, the “PK R510Q AC50” value is given as “No Fit”.
In the case of `COc1cccc(Cn2ncc3c4sc(C(O)c5ccccc5)nc4n(C)c3c2=O)c1` (centres unmarked) [Compound 13], the AC50 on wild type PKR [1] was at most 1000 nM; at wild type PKR [2], below 300 nM; on PKR K410E, below 300 nM; at PKR R510Q, below 300 nM.
`Cc1nc2c(s1)c1cnn(Cc3cccc(CN)c3)c(=O)c1n2C` [Compound 58]: the half-maximal activity concentration (AC50) on wild type PKR [1] was above 1000 nM; on wild type PKR [2], below 300 nM; at PKR K410E, below 300 nM; at PKR R510Q, below 300 nM.
For the compound `Cn1c2nc(Cc3c[nH]nn3)sc2c2cnn(Cc3ccccc3)c(=O)c21` [Compound 273], the EC50 was above 1000 nM on wild type PKR [1] (Table 4, AC50, RBCs); above 800 nM on wild type PKR [2]; above 800 nM at PKR K410E (Table 4, AC50, enzyme assay); above 800 nM on PKR R510Q (Table 4, AC50, enzyme assay).
For the compound `COc1cccc(Cn2ncc3c4sc(Cc5ccc(C(F)(F)F)cc5)nc4n(C)c3c2=O)c1` [Compound 41], the AC50 is at most 1000 nM on wild type PKR [1], below 300 nM on wild type PKR [2], below 300 nM at PKR K410E and below 300 nM at PKR R510Q.
As for `Cc1nc2c(s1)c1cnn(Cc3cccc(C(C)N)c3)c(=O)c1n2C` (centres unmarked) [Compound 57], the concentration at half-maximal activity (AC50) was at most 1000 nM on wild type PKR [1], below 300 nM on wild type PKR [2], below 300 nM on PKR K410E and below 300 nM on PKR R510Q.
For the compound `Cn1c2nc(Cn3cnnc3)sc2c2cnn(Cc3cccc4[nH]ncc34)c(=O)c21` [Compound 294], the EC50 on wild type PKR [1] (Table 4, AC50, RBCs) was above 1000 nM; on wild type PKR [2], above 800 nM; at PKR K410E (Table 4, AC50, enzyme assay), above 800 nM; on PKR R510Q (Table 4, AC50, enzyme assay) it was 301 to 800 nM.
On to `Cc1nc2c(s1)c1cnn(Cc3ccc4[nH]ncc4c3)c(=O)c1n2C` [Compound 29], for which the half-maximal activity concentration (AC50) was above 1000 nM on wild type PKR [1], below 300 nM on wild type PKR [2], below 300 nM on PKR K410E and below 300 nM at PKR R510Q.
As to `Cc1nc2c(s1)c1cnn(Cc3cccc4[nH]ncc34)c(=O)c1n2C` [Compound 26], the AC50 on wild type PKR [1] is at most 1000 nM; at wild type PKR [2] it was below 300 nM; on PKR K410E, above 800 nM; on PKR R510Q, below 300 nM.
For the compound `COc1ncccc1Cc1nc2c(s1)c1cnn(Cc3cccc4[nH]ncc34)c(=O)c1n2C` [Compound 219], the EC50 was at most 1000 nM on wild type PKR [1] (Table 4, AC50, RBCs); below 300 nM at wild type PKR [2]; below 300 nM on PKR K410E (Table 4, AC50, enzyme assay); below 300 nM at PKR R510Q (Table 4, AC50, enzyme assay).
With `Cn1c2nc(NCc3ccccc3)sc2c2cnn(Cc3cccc4[nH]ncc34)c(=O)c21` [Compound 149], the AC50 was above 1000 nM on wild type PKR [1], 301 to 800 nM on wild type PKR [2], 301 to 800 nM at PKR K410E and 301 to 800 nM on PKR R510Q.
As for `Cc1nc2c(s1)c1cnn(CCOCCO)c(=O)c1n2C` [Compound 54], on wild type PKR [1], the “Cell based ATP assay AC50” value is recorded as “No Fit”. For the same compound, the concentration at half-maximal activity (AC50) at wild type PKR [2] and on PKR K410E was above 800 nM each time. Also, at PKR R510Q, the “PK R510Q AC50” value was “No Fit”.
Regarding `CCOC(=O)c1scnc1Cc1nc2c(s1)c1cnn(Cc3cccc4[nH]ncc34)c(=O)c1n2C` [Compound 165], the half-maximal activity concentration (AC50) on wild type PKR [1] is at most 1000 nM; at wild type PKR [2], 301 to 800 nM; on PKR K410E, above 800 nM; on PKR R510Q, 301 to 800 nM.
With `Cn1c2nc(Cc3cccc(C#N)c3)sc2c2cnn(Cc3cccc4[nH]ncc34)c(=O)c21` [Compound 99], the AC50 on wild type PKR [1] was at most 1000 nM; at wild type PKR [2], below 300 nM; at PKR K410E, 301 to 800 nM; on PKR R510Q, 301 to 800 nM.
Take `Cn1c2nc(Cc3cncnc3)sc2c2cnn(Cc3cccc4[nH]ncc34)c(=O)c21` [Compound 153]: the AC50 on wild type PKR [1] was at most 1000 nM; on wild type PKR [2], above 800 nM; on PKR K410E, above 800 nM; on PKR R510Q it was above 800 nM.
